Measurements reported in patent US4431636A, “Bis(4-O-polyhexaose-thio)-phenyl ureas and method of use” (American Cyanamid Company, priority 1982, dated 1984).
Read-outs that look alike come from different tables or passages of the source.

Experiments:
activated human C1 = activated human C1 (Homo sapiens, UniProt P09871); test: Test Code 026 (C1 inhibitor); type: biochemical; conditions: in vitro; serial twofold dilution assay, higher well number higher activity
Procedure: (§1) Percent inhibition is calculated by comparison with simultaneous controls.

[1] = tested on: serum complement activity; test: Guinea Pig Intraperitoneal Test (GPIP); type: in vivo; conditions: Cavia porcellus, ip, 200 mg/kg i.p.
Procedure: as §1

[2] = tested on: late components of human complement (C3-C9); test: Test Code 035 (C3-C9 inhibitor); type: biochemical; conditions: in vitro; lysis of EAC 142; serial twofold dilution assay, higher well number higher activity
Procedure: as §1

activated human C1, sequence (P09871 16-688): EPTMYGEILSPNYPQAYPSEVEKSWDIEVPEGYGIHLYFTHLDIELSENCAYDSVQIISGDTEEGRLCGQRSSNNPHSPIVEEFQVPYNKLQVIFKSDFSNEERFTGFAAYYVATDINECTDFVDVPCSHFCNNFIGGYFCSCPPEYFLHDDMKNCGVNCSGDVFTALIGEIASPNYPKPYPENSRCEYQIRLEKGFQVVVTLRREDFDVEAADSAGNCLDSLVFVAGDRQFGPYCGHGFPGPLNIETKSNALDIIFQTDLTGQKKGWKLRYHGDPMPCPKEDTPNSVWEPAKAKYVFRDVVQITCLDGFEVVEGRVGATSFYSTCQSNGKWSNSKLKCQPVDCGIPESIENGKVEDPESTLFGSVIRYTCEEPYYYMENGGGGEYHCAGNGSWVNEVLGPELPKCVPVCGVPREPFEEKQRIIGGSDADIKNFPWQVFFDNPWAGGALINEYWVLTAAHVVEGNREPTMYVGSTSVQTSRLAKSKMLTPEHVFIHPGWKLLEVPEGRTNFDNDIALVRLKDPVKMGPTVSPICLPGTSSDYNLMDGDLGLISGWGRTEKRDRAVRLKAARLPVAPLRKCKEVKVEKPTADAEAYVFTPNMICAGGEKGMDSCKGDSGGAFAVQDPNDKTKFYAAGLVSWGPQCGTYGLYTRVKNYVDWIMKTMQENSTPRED
activated human C1, sequence (P00736 18-705 partner): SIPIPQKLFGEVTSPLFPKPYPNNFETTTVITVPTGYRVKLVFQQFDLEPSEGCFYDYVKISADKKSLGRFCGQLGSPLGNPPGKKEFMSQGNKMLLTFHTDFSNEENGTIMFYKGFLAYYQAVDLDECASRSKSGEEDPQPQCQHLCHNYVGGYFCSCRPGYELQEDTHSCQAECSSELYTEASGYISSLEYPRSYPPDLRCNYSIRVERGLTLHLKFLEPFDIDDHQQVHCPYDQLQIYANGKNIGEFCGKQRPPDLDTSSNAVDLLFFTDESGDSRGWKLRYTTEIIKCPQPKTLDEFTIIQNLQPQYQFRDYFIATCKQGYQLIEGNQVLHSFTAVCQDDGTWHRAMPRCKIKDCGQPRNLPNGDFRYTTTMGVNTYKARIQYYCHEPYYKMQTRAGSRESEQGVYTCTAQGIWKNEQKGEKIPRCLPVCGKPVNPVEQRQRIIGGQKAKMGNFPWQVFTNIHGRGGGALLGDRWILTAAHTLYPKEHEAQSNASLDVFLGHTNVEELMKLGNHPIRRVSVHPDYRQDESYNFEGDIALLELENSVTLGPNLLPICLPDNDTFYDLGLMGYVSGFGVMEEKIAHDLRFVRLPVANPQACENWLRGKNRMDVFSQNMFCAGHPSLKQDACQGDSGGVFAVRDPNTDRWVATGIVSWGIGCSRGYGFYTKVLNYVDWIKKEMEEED
activated human C1, sequence (P02745 23-245 partner): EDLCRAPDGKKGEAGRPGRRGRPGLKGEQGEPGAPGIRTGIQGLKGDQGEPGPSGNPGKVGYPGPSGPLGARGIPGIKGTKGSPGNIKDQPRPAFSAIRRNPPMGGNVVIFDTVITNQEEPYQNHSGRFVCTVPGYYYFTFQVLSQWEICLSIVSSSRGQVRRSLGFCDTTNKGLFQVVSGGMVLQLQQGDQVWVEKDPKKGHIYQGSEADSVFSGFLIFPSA
activated human C1, sequence (P02746 28-253 partner): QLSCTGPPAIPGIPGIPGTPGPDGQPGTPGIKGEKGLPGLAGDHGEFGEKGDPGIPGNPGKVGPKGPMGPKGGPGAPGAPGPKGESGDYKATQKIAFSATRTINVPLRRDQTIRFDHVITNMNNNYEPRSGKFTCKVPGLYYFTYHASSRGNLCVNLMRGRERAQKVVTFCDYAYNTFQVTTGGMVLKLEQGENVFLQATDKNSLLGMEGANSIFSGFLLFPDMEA
activated human C1, sequence (P02747 29-245 partner): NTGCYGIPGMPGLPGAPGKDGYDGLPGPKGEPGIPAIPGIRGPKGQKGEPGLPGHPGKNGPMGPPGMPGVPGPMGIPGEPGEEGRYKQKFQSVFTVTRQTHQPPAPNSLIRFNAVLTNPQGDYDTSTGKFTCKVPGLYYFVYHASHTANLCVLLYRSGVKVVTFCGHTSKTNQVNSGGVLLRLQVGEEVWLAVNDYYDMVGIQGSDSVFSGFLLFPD

O=C(Nc1ccc(S[C@@H]2O[C@H](COS(=O)(=O)O)[C@@H](O[C@H]3O[C@H](COS(=O)(=O)O)[C@@H](OS(=O)(=O)O)[C@H](OS(=O)(=O)O)[C@H]3OS(=O)(=O)O)[C@H](OS(=O)(=O)O)[C@H]2OS(=O)(=O)O)cc1)Nc1ccc(S[C@@H]2O[C@H](COS(=O)(=O)O)[C@@H](O[C@H]3O[C@H](COS(=O)(=O)O)[C@@H](OS(=O)(=O)O)[C@H](OS(=O)(=O)O)[C@H]3OS(=O)(=O)O)[C@H](OS(=O)(=O)O)[C@H]2OS(=O)(=O)O)cc1.[Na].[Na].[Na].[Na].[Na].[Na].[Na].[Na].[Na].[Na].[Na].[Na].[Na].[Na] [Tetradecasodium N,N'-bis[4-[[2,3,6-tri-O-sulfo-4-O-(2,3,4,6-tetra-O-sulfo-α-D-glucopyranosyl)-β-D-glucopyranosyl]thio]phenyl]urea]
C-1 026 Wells (activated human C1): 11 Wells
inhibition at 200 mg/kg ([1]; serum taken 2 hours after injection, read-out: In vivo Activity (Guinea Pig % Inhibition) (Intraperitoneal) Time 2 Hours): 90%
inhibition at 200 mg/kg ([1]; serum taken 6 hours after injection, read-out: In vivo Activity (Guinea Pig % Inhibition) (Intraperitoneal) Time 6 Hours): 91%
inhibition at 200 mg/kg ([1]; serum taken 24 hours after injection, read-out: In vivo Activity (Guinea Pig % Inhibition) (Intraperitoneal) Time 24 Hours): 58%
C-Late 035 Wells [2]: 2 Wells
